Results reported in patent US9067937B2 (priority 2012, dated 2015).
Where a name gives a salt, the structure may show the parent alone.

Columns and labels:
HT1197 cells = experiment: Cell-based assay, anti-proliferative activity, MELK-negative control (Cell Counting Kit-8, 72 hours); design: species or system human; settings: Homo sapiens, HT1197, 72 h, read-out: IC50 (μM) (HTll97)
Procedure: 100 micro-L of cell suspension was seeded onto 96-well microtiter plate (ViewPlate-96FTC, PerkinElmer). The initial cell concentration of 22Rv1, T47D, A549, DU4475, and HT1197 were 3,000 cells/well, 2,000 cells/well and 2,500 cells/well, respectively. Cellular growth was determined using Cell Counting Kit-8 (DOJINDO) at 72 hours after the exposure of the candidate inhibitors. […] Accurate IC50 values were calculated as described previously.

MELK = MELK (Homo sapiens, UniProt Q14680); experiment: Kinase assay (IMAP fluorescence polarization, FITC-labeled histone H3 peptide); format: biochemical; settings: 50 micro-M ATP
Sequence of MELK (Q14680 whole entry, looked up): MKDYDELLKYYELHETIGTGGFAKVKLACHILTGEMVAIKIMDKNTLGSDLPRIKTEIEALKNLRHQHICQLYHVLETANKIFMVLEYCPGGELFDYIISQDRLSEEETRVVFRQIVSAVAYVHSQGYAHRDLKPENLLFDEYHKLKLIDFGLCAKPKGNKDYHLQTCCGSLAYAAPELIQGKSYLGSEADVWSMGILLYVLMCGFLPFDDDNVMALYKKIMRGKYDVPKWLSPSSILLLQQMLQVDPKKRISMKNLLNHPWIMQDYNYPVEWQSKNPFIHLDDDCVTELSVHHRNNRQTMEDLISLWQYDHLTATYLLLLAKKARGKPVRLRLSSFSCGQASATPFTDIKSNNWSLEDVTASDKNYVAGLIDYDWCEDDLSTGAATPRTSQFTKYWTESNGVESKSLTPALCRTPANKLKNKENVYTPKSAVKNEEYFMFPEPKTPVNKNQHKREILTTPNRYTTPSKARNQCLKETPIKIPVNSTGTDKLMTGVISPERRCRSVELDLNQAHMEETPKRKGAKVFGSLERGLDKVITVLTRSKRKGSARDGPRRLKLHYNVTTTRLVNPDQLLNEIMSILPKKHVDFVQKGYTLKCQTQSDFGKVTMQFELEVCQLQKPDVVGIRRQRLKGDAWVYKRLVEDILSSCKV
How it was run: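 Kinase (0.8 ng/μL) reacted with 100 nM FITC-histone H3 peptide and 50 μM ATP in 20 mM HEPES, 0.3 mM MgCl2, 2 mM DTT, 0.01% Tween-20, pH 7.4, for 1 hour at room temperature. Phosphorylation read by IMAP fluorescence polarization after adding binding solution; IC50 from four-parameter fit.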

DU4475 cells = experiment: Cell-based assay, anti-proliferative activity (Cell Counting Kit-8, 72 hours); design: species or system human; settings: Homo sapiens, DU-4475, 72 h, read-out: IC50 (μM) (DU4475)
How it was run: (§1)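 Cells seeded at 2,000–3,000 cells/well and exposed to candidate MELK inhibitors for 72 hours; growth measured with Cell Counting Kit-8. IC50 values calculated from the growth read-out.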

T47D cells = experiment: as above; design: species or system human; settings: Homo sapiens, T47D, 72 h, read-out: IC50 (μM) (T47D)
How it was run: as §1

A549 cells = experiment: as above; design: species or system human; settings: Homo sapiens, A549, 72 h, read-out: IC50 (μM) (A549)
How it was run: as §1

22Rv1 cells = experiment: as above; design: species or system human; settings: Homo sapiens, 22Rv1, 72 h, read-out: IC50 (μM) (22Rvl)
How it was run: as §1

Compound	IC50 (HT1197 cells) [µM]	IC50 (MELK) [µM]	IC50 (DU4475 cells) [µM]	IC50 (T47D cells) [µM]	IC50 (A549 cells) [µM]	IC50 (22Rv1 cells) [µM]
CNC1CCN(c2ccc(Nc3c(C(C)=O)cnc4ccc(-c5cc(F)c(O)c(Cl)c5)nc34)cn2)C1 (stereo not drawn) [Example 54, 1-(6-(3-Chloro-5-fluoro-4-hydroxyphenyl)-4-{6-[3-(methylamino)pyrrolidin-1-yl]pyridin-3-ylamino}-1,5-naphthyridin-3-yl)ethanone trihydrochloride]	3.9	0.012	0.11	0.04	0.17	0.086
CC(=O)c1cnc2ccc(-c3ccc4[nH]cnc4c3)nc2c1N[C@H]1CC[C@H](CN(C)C)CC1 [Example 55, 1-(6-(1H-Benzo[d]imidazol-5-yl)-4-{trans-4-[(dimethylamino)methyl]cyclohexylamino}-1,5-naphthyridin-3-yl)ethanone trihydrochloride]	2	0.017	0.65	0.084	0.25	0.3
CC(=O)c1cnc2ccc(-c3ccncc3)nc2c1N[C@H]1CC[C@H](CN(C)C)CC1 [Example 56, 1-{4-[4-(trans-4-Dimethylamino)methylcyclohexylamino]-6-(pyridin-4-yl)-1,5-naphthyridin-3-yl}ethanone trihydrochloride]	1.7	0.016	0.46	0.38	0.52	0.86
CC(=O)c1cnc2ccc(-c3cnc(C#N)nc3)nc2c1N[C@H]1CC[C@H](CN(C)C)CC1 [Example 57, 5-(7-Acetyl-8-{trans-4-[(dimethylamino)methyl]cyclohexylamino}-1,5-naphthyridin-2-yl)pyrimidine-2-carbonitrile]	0.38	0.0012	0.22	0.089	0.56	0.24
CC(=O)c1cnc2ccc(-c3c(C)n[nH]c3C)nc2c1N[C@H]1CC[C@H](CN(C)C)CC1 [Example 58, 1-(6-(3,5-Dimethyl-1H-pyrazol-4-yl)-4-{trans-4-[(dimethylamino)methyl]cyclohexylamino}-1,5-naphthyridin-3-yl)ethanone trihydrochloride]	10	1	5.9	1.6	3	6.1
CC(=O)c1cnc2ccc(-c3cc(C)c(O)c(C)c3)nc2c1N[C@H]1CC[C@H](CN(C)C)CC1 [Example 59, 1-(4-{trans-4-[(Dimethylamino)methyl]-cyclohexylamino}-6-(4-hydroxy-3,5-dimethylphenyl)-1,5-naphthyridin-3-yl) ethanone dihydrochloride]	7.5	0.0047	0.21	0.39	0.23	2.5
CC(=O)c1cnc2ccc(-c3cc(Cl)c(O)c(Cl)c3)nc2c1Nc1ccc(CN2CCCC2)cc1 [Example 60, dihydrochloride]	1.1	0.0043	0.041	0.066	0.11	0.1
CC(=O)c1cnc2ccc(-c3cc(Cl)c(O)c(Cl)c3)nc2c1N[C@H]1CC[C@H](CN2CCCC2)CC1 [Example 61, 1-{6-(3,5-Dichloro-4-hydroxyphenyl)-4-[trans-4-(pyrrolidin-1-ylmethyl)cyclohexylamino]-1,5-naphthyridin-3-yl}ethanone dihydrochloride]	0.15	0.0004	0.0044	0.0069	0.012	0.011
CC(=O)c1cnc2ccc(-c3cc(F)c(O)c(Cl)c3)nc2c1N[C@H]1CC[C@H](CN2CCCC2)CC1 [Example 62, 1-(6-(3-Chloro-5-fluoro-4-hydroxyphenyl)-4-{[trans-4-(pyrrolidin-1-ylmethyl)cyclohexyl]amino}-1,5-naphthyridin-3-yl)ethanone dihydrochloride]	0.091	0.0009	0.0037	0.0034	0.011	0.0073
